Data: US7833795B2, “Assessment of cardiovascular risk using isoprostane biomarkers and COX-2 selective inhibitors” (The Trustees of the University of Pennsylvania, priority 2004, dated 2010)
Like-named read-outs stand apart in the source and are kept apart here.

How the values were obtained:
[1] = system: mice; assay: Tail cuff blood pressure measurement; assay type: in vivo, mouse; conditions: celecoxib treatment, regular chow diet
Method: (i) Tail Cuff measurement: Resting systolic blood was measured in conscious mice (3-4 months old) using a computerized noninvasive tail-cuff system (Visitech Systems, Apex, N.C.). […] Mice were adapted to the system for 14 days; measurements of sessions 25 minutes in length were done once each day between 15:00 and 18:00. After that, blood pressure was recorded daily for 3 consecutive days in the same way. Data were collected and analyzed using updated BP 2000 software (http://www(dot)visitechsystems(dot)com/).

[2] = system: mice; conditions: mouse, in vivo
Method: Briefly, mice (12→16 weeks) were anesthetized with sodium pentobarbital (80 mg/kg, intraperitoneally). Following a midline cervical incision, the left common carotid artery was isolated and a Doppler flow probe (Model 0.5 VB, Transonic Systems Co., Ithaca, N.Y.) was applied. The probe was connected to a flowmeter (Transonic Model T105) and interpreted with Powerlab® (AD Instruments, Colorado Springs, Colo.), a computerized data acquisition program. Rose Bengal (Fisher Scientific, Fair Lawn, N.J.) was diluted to phosphate-buffered saline and then injected into the jugular vein in a volume of 0.12 ml at a concentration of 50 mg/kg. Immediately prior to injection, a 1.5-mW green light laser (540 nm) (Melles Griot, Carlsbad, Calif.) was applied to the desired site of injury from a distance of 5 cm carotid artery; blood flow was monitored for 120 minutes or until stable occlusion occurred, after which the mice still showing blood flow were assigned a value of 120 minutes. Stable occlusion was defined as a blood flow of 0 ml/min for 3 minutes.

[3] = system: eicosanoid biosynthesis; assay: Urinary eicosanoid analyses in mice; assay type: in vivo, mouse
Method: Mice: In all cases, transgenic mice deficient in the indicated gene were compared with appropriate strain-, age-, and sex-matched control animals. The investigator was unaware of the genotype throughout the experiment. All procedures were approved and animal husbandry was overseen by the Institutional Animal Care and Usage Committee of the University of Pennsylvania.
Eicosanoid analyses: Urinary 2,3-dinor TxB2 and 2,3-dinor 6-keto PGF1α were measured in twenty four hour urines collected in metabolic cages. After extraction and purification by thin layer chromatography, they were analyzed by gas chromatography/mass spectrometry, as previously described (Egan et al., 2005, Circulation 111:334). Urinary PGE-M was measured by LC/MS/MS as follows: First, 10 ng of hexadeuterated PGE-M (9,15-dioxo-11α-hydroxy-2,3,4,5-tetranor-prostan-1,20-dioic-17,17,18,18,19,19-d6 acid; Cayman Chemical Co., Ann Arbor, Mich.) was added to 0.1 ml of mouse urine. Next, 50 μL of methoxyamine HCl, 1 g/L, was added and the sample was mixed and allowed to stand at room temperature for 15 minutes. The sample was then diluted to 1.0 ml with water and extracted on a Strata™-X solid phase extraction (SPE) cartridge (Phenomenex Inc., Torrance, Calif.). The SPE was eluted with 1.0 mL of 5% acetonitrile in ethyl acetate, dried, dissolved in 200 μL 10% acetonitrile in water, and injected for LC/MS/MS analysis. Transitions monitored were m/z 385→336 for the endogenous PGE-M and 391→342 for the internal standard.

[4] = small, short-term studies of cardiopulmonary bypass grafting; cited from earlier work
[5] = Case study of short term valdecoxib use; assay type: in vivo, human; conditions: valdecoxib 20 mg b.i.d. Person on oral contraceptive
Method: A ventilation-perfusion scan (VQ scan) was performed according to typical hospital procedure. Inhalation of 20.1 millicurie (mCi) of Xenon-133 gas was used for the ventilation scan. Intravenous injection of 4.1 mCi of Tc-99m-labelled MAA was used for the perfusion scan.
A person presented with pulmonary embolism. They had been taking, without complication, Ortho-Tricyclen® (0.180, 0.215, and 0.250 mg norgestimate cycles; 35 microgram (μg) ethinyl estradiol) for two years and Ortho Tri-cyclen® LO (same norgestimate; 25 μg ethinyl estradiol) for 14 months. A non-smoker, they lacked a relevant family history and was vigorously athletic.
One month prior to presentation, they developed neck pain. Disc protrusion at C5-C6 was detected by magnetic resonance imaging (MRI). The patient was prescribed valdecoxib 20 mg b.i.d. for two weeks. Their neck pain resolved. However, towards the end of this two-week treatment period, they developed left-sided pleuritic chest and shoulder pain after a 6 hour car ride. They were commenced on cyclobenzaprine 10 mg b.i.d. and continued on valdecoxib. Their left-sided pain abated gradually. However, 18 days later, they developed right-sided chest and shoulder pain. […]

[6] = system: mouse aortic smooth muscle cells (MASMC); assay: H2O2-induced 8,12-iso-iPF2α-VI generation in MASMC; assay type: cell-based
Method: (§1) Mouse aortic smooth muscle cells (MASMCs): Primary aortic smooth muscle cells were prepared. […] Cells were cultured in Dulbecco's Modified Eagles medium (DMEM)/Ham's F12 (50/50) (Gibco BRL, Grand Island, N.Y.; with 15 mM HEPES and 2 mM glutamine) supplemented with 20% fetal bovine serum. Cells were routinely passaged using 0.05% trypsin/0.53 mM EDTA, seeded onto six well plates and used at 80-90% confluence, between passages five to nine.
Cicaprost (100 nM, Schering A G, Berlin, Germany by agreement) was added to MASMC medium just prior to addition of H2O2.
Short term treatment with E2: Cells were washed twice rinsing with RPMI serum free medium and then pre-incubated in 1 ml RPMI serum free medium for 1 hour. […] .
The 8,12-iso-iPF2α-VI was analyzed in 1 ml conditioned medium, adjusted to pH 3, using the same method described for urine samples.

[7] = system: heme oxygenase 1 (HO 1); assay: Heme oxygenase 1 Western blotting in MASMC; assay type: cell-based, mouse; conditions: 100 nM cicaprost, 8 hours, IP-dependent
Method: as §1
Heme oxygenase 1 (HO 1) Western Blotting: A polyclonal rabbit anti-heme oxygenase 1 (HO 1, ˜32 kDa) was purchased from Stressgen Biotechnologies, Victoria, BC, Canada. MASMCs were treated with 100 nM cicaprost for 8 hours in RPMI vehicle at 37° C. Control cells were treated with vehicle for the same time period. […] Protein isolated from aortae of high fat fed mice was quantitated by the BioRad DC assay for Western Blotting.

[8] = system: IP; assay: Whole blood platelet aggregation assay; conditions: 10 nM cicaprost, collagen 2 μg/ml ex vivo
[9] = system: IP; assay: Direct measurement of blood pressure after cicaprost; assay type: in vivo, mouse; conditions: cicaprost 1 μg/kg iv, IP−/−
From the text: (§2) IPKO and mPGES-1 KO mice: IPKO mice were backcrossed into a C57BL/6 genetic background (Cheng et al., 2002, Science 296: 539). IP^−/−, IP^+/−, and WT littermates were identified in litters generated by the intercross of IP^+/− animals by polymerase chain reaction analysis (PCR) of genomic DNA isolated from tail biopsy samples. Southern blot analysis confirmed the IP gene copy number. mPGES-1 KO mice were kindly provided by Pfizer Inc (New York, N.Y.). They were generated and maintained on the DBA/1 lacJ genetic background (Trebino et al., 2003, Proc. Natl. Acad. Sci. U.S.A. 100: 9044). Heterozygous animals were intercrossed, and the litters were screened by PCR analysis to identify both mPGES-1 KO and wild-type controls. Biochemical and functional analyses in each case were performed on mutant mice and WT littermate controls.
(§3) (iii) Direct measurement of blood pressure: Mice were anesthetized (ketamine 100 mg/kg, acepromazine 5 mg/kg) and placed on a temperature-controlled panel. The right internal jugular vein and left carotid artery were cannulated with PE-10 tubing. The arterial catheter was connected to a Capto SP844 pressure transducer (Capto, Horten, Norway), and blood pressure (BP) was monitored continuously with a Powerlab/8SP system (AD Instruments Inc.), as previously described (Hui et al., 2004, Circulation 110:3360; Rocca et al., 2000, Nat. Med. 6:219). Blood pressure and heart rate were continuously monitored for 20-40 minutes until stable values were obtained. After the equilibration period and the baseline BP was recorded, mice were injected via the right internal jugular vein with cicaprost (1 ug/kg in 4 mL/kg saline) as a bolus, and the same volume of saline was injected before cicaprost administration to exclude volume-mediated BP changes. The BP was continuously recorded until it returned to pretreatment baseline.

[10] = target: T1, IP (Mus musculus, UniProt P43252); assay: as above; assay type: in vivo; conditions: cicaprost 1 μg/kg iv
T1 construct: from tissue; host or cells: live anesthetized mice (WT, IP+/- and IP-/- littermates, C57BL/6 background); vasculature
T1 sequence (P43252 1-412 limits assumed): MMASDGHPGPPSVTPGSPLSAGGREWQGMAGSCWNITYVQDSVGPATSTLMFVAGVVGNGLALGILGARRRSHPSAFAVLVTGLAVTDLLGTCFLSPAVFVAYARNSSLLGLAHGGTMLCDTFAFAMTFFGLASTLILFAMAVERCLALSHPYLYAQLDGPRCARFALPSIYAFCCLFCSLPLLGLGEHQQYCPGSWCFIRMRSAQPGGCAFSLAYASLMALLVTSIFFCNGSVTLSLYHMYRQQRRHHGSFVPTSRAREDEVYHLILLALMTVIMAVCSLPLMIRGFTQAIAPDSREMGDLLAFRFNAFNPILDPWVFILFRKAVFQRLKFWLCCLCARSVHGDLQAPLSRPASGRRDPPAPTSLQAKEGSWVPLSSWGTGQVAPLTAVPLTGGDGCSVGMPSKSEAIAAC
From the text: as §2, §3

[11] = system: Male C57BL/6J mice
Method: (§4) Animals: All animal studies were performed according to protocols approved by the Institutional Committee for Use and Care of Laboratory Animals. Male C57BL/6J mice, aged four to six weeks were used for the flow reduction models. The parental background strain of the male, four to six week old donor mice in the transplant studies was also C57BL/6J (H2b). The background of the recipient mice was C3H(H2k) (Taconic Farms Inc, Germantown, N.Y.).
Urine was collected over a 24 hour period in metabolic cages (Nalgene Labware, Deepwater, N.J.) with vehicle or nimesulide allowed ad libitum. Urinary levels of prostanoid metabolites were measured by stable isotope dilution methods as previously described. […] A urine aliquot (0.1 ml) was used for measurement of creatinine by an automated colorimetric assay (Sigma-Aldrich Co., St Louis, Mo.).
(§5) Briefly, the distal left common carotid artery (LC) artery and its bifurcation into the external and internal carotid were exposed using blunt dissection. 9-0 nylon sutures (USSC Sutures, Norwalk, Conn.) were used to ligate the EC artery, incisions were closed (7-0 polypropylene) and mice were left to recover. Severe reduction in flow was achieved by ligating the LC artery just proximal to the external/internal carotid artery bifurcation. Five μm cross sections were used from parallel regions of RC and LC that were isolated in 5 millimeter (mm) blocks proximal to the ligation, until reaching a parallel point at the RC artery branchpoint with the right subclavian artery. […] Mice that developed thrombosis were excluded from the analysis. […] Urine was collected from individual mice using metabolic cages at four weeks of age, and again after a four week period of treatment, subsequent to either moderate or severe flow reduction. Urine samples were frozen at −20° for analysis.

[12] = system: Male C57BL/6J mice; conditions: nimesulide
Method: as §4, §5

[13] = system: Male C57BL/6J mice; conditions: one week after LC ligation, severe flow reduction
From the text: as §5

[14] = nimesulide, severe flow reduction

## Cc1ccc(-c2cc(C(F)(F)F)nn2-c2ccc(S(N)(=O)=O)cc2)cc1 [celecoxib]
[1]
  blood pressure compared to WT controls: elevated

## CC1(C)OC(=O)C(c2cccc(F)c2)=C1c1ccc(S(C)(=O)=O)cc1 [DFU, 5,5-dimethyl-3-(3-fluorophenyl)-4-(4-methylsulphonyl)phenyl-2(5H)-furanone]
[2]
  mean impact on time to occlusion, % of WT value: 56.2%
[3]; DFU, WT mice
  mean depression of urinary 2,3-dinor 6-keto PGF1α from pretreatment values: 71.2%
  mean depression of urinary PGE-M from pretreatment values: 52.3%
  urinary 2,3-dinor TxB2 vs pretreatment values: did not depress
[3]; DFU, WT mice, second value of the printed pair (4.63±1.3 vs.), order not stated
  urinary 2,3-dinor TxB2: 6.0±1.1 ng/mg creatinine
[3]; PGHS-2 inhibition, mice
  urinary 2,3-dinor 6-keto PGF1α: suppressed substantially
[3]; treatment with PGHS-2 selective inhibitor, mice
  urinary 2,3-dinor TxB2: unaltered significantly

## Cc1onc(-c2ccccc2)c1-c1ccc(S(N)(=O)=O)cc1 [valdecoxib]
[4]
  relative risk of heart attack and stroke: three-fold increase
[5]
  adverse event diagnosed in the patient: left iliac vein thrombosis and bilateral pulmonary emboli

## CCC#CC[C@H](C)[C@H](O)C#C[C@@H]1[C@H]2C/C(=C/COCC(=O)O)C[C@H]2C[C@H]1O [cicaprost]
[6]; cicaprost 100 nM, H2O2 100 μM 30 min
  response of MASMCs to H2O2, iP generation: limits the response
[6]; cicaprost, MASMC without H2O2
  iP generation from unstimulated cells: does not significantly reduce
[7]
  HO 1 protein expression: increased expression
[8]
  platelet aggregation readout, second value printed for IP+/− mice: 100%
[8]; IP+/− mice
  inhibition of platelet aggregation, % of the maximal inhibition observed in WTs: 86.7%
[9]
  depressor response, MAP: no change in MAP
  maximal decline in mean arterial pressure from pretreatment baseline: 0%
[10]; IP+/−
  duration of the depressor response: 5.3 ± 1.1 min
  maximal decline in mean arterial pressure from pretreatment baseline: 24%
[10]; WT
  maximal decline in mean arterial pressure from pretreatment baseline: 36±3.5%
[10]; WTs
  duration of the depressor response: 10.8 ± 2.5 min

## CS(=O)(=O)Nc1ccc([N+](=O)[O-])cc1Oc1ccccc1 [nimesulide]
[11]; nimesulide 40 mg/L in drinking water, chronic, control mice
  urinary PGI-M: depressed urinary PGI-M
[11]; nimesulide, control conditions
  urinary 2,3-dinor TxB2 excretion: failed to suppress
[11]; nimesulide, control mice
  excretion of an isoprostane biomarker of lipid peroxidation: did not alter excretion
[11]; nimesulide, moderate and severe reduction in flow
  urinary PGI-M: depressed PGI-M to a similar degree
[11]; [14]
  oxidant stress, urinary 8,12-iso-iPF2α-VI: markedly augmented
  platelet activation, urinary 2,3-dinor TxB2 excretion: markedly augmented
[12]; control mice
  lumen diameter and external elastic lamina diameter of RCs or LCs: did not itself affect
[12]; moderate or severe flow reduction
  flow dependent reduction in vessel size (luminal and EEL diameter): failed to alter
[12]; severe flow reduction
  neointimal area, intimal hyperplastic response in LC: markedly augmented the intimal hyperplastic response
[13]
  blood flow in the LC, nimesulide vs vehicle: marked reduction
